In patent publication US20150274719A1, “AMINO-SUBSTITUTED IMIDAZO[1,2-A]PYRIDINECARBOXAMIDES AND THEIR USE” (BAYER PHARMA AKTIENGESELLSCHAFT, priority 2012, published 2015):

Biological target: T1, recombinant guanylate cyclase reporter cell line (Rattus norvegicus, UniProt P19686+P20595)
T1 construct: expressed in transfected cells; host or cells: recombinant reporter cell line
T1 sequence (P19686 1-690): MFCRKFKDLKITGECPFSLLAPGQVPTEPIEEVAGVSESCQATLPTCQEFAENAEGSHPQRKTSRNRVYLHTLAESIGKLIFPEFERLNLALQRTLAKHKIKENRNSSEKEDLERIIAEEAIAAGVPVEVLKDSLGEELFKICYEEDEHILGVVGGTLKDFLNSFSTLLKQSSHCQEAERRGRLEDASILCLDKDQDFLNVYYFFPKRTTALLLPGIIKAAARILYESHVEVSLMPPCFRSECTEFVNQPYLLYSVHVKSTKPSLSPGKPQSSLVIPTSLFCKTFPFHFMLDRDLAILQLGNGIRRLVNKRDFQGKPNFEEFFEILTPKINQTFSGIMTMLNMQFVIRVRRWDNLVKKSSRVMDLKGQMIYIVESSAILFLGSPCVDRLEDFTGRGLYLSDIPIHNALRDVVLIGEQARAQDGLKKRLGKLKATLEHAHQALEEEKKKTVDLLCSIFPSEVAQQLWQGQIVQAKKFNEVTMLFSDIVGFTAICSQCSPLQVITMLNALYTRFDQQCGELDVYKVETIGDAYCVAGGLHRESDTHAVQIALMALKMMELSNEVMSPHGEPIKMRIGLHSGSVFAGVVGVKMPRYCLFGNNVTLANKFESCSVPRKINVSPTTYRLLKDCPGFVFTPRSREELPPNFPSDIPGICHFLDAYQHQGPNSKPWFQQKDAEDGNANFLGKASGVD
T1 sequence (P20595 1-619): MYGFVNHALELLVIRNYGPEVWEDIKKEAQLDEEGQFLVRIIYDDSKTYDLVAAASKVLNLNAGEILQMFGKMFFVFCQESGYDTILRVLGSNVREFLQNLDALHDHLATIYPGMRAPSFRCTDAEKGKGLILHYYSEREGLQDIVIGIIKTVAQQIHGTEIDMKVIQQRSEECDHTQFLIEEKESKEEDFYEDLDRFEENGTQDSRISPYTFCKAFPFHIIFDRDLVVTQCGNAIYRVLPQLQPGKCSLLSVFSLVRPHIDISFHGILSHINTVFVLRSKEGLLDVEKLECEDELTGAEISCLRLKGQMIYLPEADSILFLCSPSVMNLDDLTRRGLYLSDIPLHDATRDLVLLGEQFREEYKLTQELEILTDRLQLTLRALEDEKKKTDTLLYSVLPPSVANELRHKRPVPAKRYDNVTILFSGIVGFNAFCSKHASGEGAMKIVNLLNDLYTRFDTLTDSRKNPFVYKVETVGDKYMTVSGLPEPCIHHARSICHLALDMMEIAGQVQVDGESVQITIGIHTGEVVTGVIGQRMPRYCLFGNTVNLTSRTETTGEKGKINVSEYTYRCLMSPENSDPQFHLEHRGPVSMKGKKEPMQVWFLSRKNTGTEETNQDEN
Experiment: Action on recombinant guanylate cyclase reporter cell line
Format: cell-based
Details: in some cases mean values from individual determinations
Procedure, shortened: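 Each compound is applied to a cell line engineered with a reporter for recombinant guanylate cyclase. The minimal effective concentration is then noted, in part as a mean across separate determinations.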

Row | MEC (minimal effective concentration) [µM] | Compound
1 | 0.30 | CCC1CC(NC(=O)c2c(C)nc3c(OCc4c(F)cccc4F)cc(C)cn23)c2nc(C(F)(F)F)ccc2N1 (single isomer, unassigned; ent-8) [Example 325, ent-8-[(2,6-Difluorobenzyl)oxy]-N-[2-ethyl-6-(trifluoromethyl)-1,2,3,4-tetrahydro-1,5-naphthyridin-4-yl]-2,6-dimethylimidazo[1,2-a]pyridine-3-carboxamide]
2 | 0.30 | Cc1cc(OCc2c(F)cccc2F)c2nc(C)c(C(=O)NC3CC(C)Nc4ccc(C(F)(F)F)nc43)n2c1 (single isomer, unassigned; ent-8) [Example 326, ent-8-[(2,6-Difluorobenzyl)oxy]-2,6-dimethyl-N-[2-methyl-6-(trifluoromethyl)-1,2,3,4-tetrahydro-1,5-naphthyridin-4-yl]imidazo[1,2-a]pyridine-3-carboxamide]
3 | 0.30 | Cc1nc2c(OCc3c(F)cccc3F)cc(Cl)cn2c1C(=O)NC(C)CN (stereo not drawn) [Example 22, ent-N-(1-aminopropan-2-yl)-6-chloro-8-[(2,6-difluorobenzyl)oxy]-2-methylimidazo[1,2-a]-pyridine-3-carboxamide]
4 | 0.65 | Cc1nc2c(OCc3c(F)cccc3F)cc(Cl)cn2c1C(=O)NC(C)(C)CN [Example 24, N-(1-amino-2-methylpropan-2-yl)-6-chloro-8-[(2,6-difluorobenzyl)oxy]-2-methylimidazo[1,2-a]pyridine-3-carboxamide]
5 | 0.30 | Cc1cc(OCc2c(F)cccc2F)c2nc(C)c(C(=O)NC(C)(C)CN)n2c1 [Example 26, N-(1-amino-2-methylpropan-2-yl)-8-[(2,6-difluorobenzyl)oxy]-2,6-dimethylimidazo[1,2-a]-pyridine-3-carboxamide]
6 | 0.10 | Cc1cc(OCc2c(F)cccc2F)c2nc(C)c(C(=O)NCC3(N)CC3)n2c1 [Example 40, N-[(1-aminocyclopropyl)methyl]-8-[(2,6-difluorobenzyl)oxy]-2,6-dimethylimidazo[1,2-a]-pyridine-3-carboxamide]
7 | 1.00 | Cc1cc(OCc2c(F)cccc2F)c2nc(C)c(C(=O)NC(C)CN)n2c1 (stereo not drawn) [Example 48, ent-N-(1-Aminopropan-2-yl)-8-[(2,6-difluorobenzyl)oxy]-2,6-dimethylimidazo[1,2-a]pyridine-3-carboxamide]
8 | 0.20 | Cc1cc(OCc2c(F)cccc2F)c2nc(C)c(C(=O)NC(CN)c3ccc(F)c(F)c3)n2c1 (stereo not drawn) [Example 51, ent-N-[2-Amino-1-(3,4-difluorophenyl)ethyl]-8-[(2,6-difluorobenzyl)oxy]-2,6-dimethylimidazo-[1,2-a]pyridine-3-carboxamide]
9 | 0.30 | Cc1nc2c(OCc3c(F)cccc3F)cc(F)cn2c1C(=O)NC(CN)c1ccc(F)c(F)c1 (stereo not drawn) [Example 53, ent-N-[2-Amino-1-(3,4-difluorophenyl)ethyl]-8-[(2,6-difluorobenzyl)oxy]-6-fluoro-2-methyl-imidazo[1,2-a]pyridine-3-carboxamide]

The remaining lines, values behind:

Row | Compound | MEC (minimal effective concentration) [µM]
10 | Cc1nc2c(OCc3c(F)cccc3F)cccn2c1C(=O)NCC(C(C)C)N(C)C (single isomer, unassigned; ent-8) [Example 189, ent-8-[(2,6-Difluorobenzyl)oxy]-N-[2-(dimethylamino)-3-methylbutyl]-2-methylimidazo[1,2-a]-pyridine-3-carboxamide] | 3.00
11 | Cc1nc2c(OCc3c(F)cccc3F)cccn2c1C(=O)NC(CNCC(F)(F)F)c1ccc(F)c(F)c1 (single isomer, unassigned; ent-8) [Example 222, ent-8-[(2,6-Difluorobenzyl)oxy]-N-{1-(3,4-difluorophenyl)-2-[(2,2,2-trifluoroethyl)amino]ethyl}-2-methylimidazo[1,2-a]pyridine-3-carboxamide] | 0.30
12 | Cc1nc2c(OCc3c(F)cccc3F)cccn2c1C(=O)NC1CC2CCCC(C1)N2C1CC1 (stereo not drawn) [Example 1, N-(9-Cyclopropyl-9-azabicyclo[3.3.1]non-3-yl)-8-[(2,6-difluorobenzyl)oxy]-2-methylimidazo[1,2-a]pyridine-3-carboxamide] | 0.10
13 | Cc1nc2c(OCc3c(F)cccc3F)cccn2c1C(=O)NC(CN)c1ccc(F)cc1F (stereo not drawn) [Example 21, ent-N-[2-Amino-1-(2,4-difluorophenyl)ethyl]-8-[(2,6-difluorobenzyl)oxy]-2-methylimidazo[1,2-a]-pyridine-3-carboxamide] | 0.30
14 | Cc1nc2c(OCc3c(F)cccc3F)cccn2c1C(=O)NC1CC2CCCC(C1)N2 (stereo not drawn) [Example 27, N-(9-azabicyclo[3.3.1]non-3-yl)-8-[(2,6-difluorobenzyl)oxy]-2-methylimidazo[1,2-a]-pyridine-3-carboxamide] | 1.00
15 | Cc1nc2c(OCc3c(F)cccc3F)cc(Cl)cn2c1C(=O)NCCC1(N)CCCCC1 [Example 33, N-[2-(1-Aminocyclohexyl)ethyl]-6-chloro-8-[(2,6-difluorobenzyl)oxy]-2-methylimidazo[1,2-a]-pyridine-3-carboxamide] | 0.30
16 | CC[C@@H](N)CNC(=O)c1c(C)nc2c(OCc3c(F)cccc3F)cc(Cl)cn12 [Example 35, ent-N-[(2R)-2-aminobutyl]-6-chloro-8-[(2,6-difluorobenzyl)oxy]-2-methyl-imidazo[1,2-a]-pyridine-3-carboxamide] | 1.00
17 | Cc1nc2c(OCc3c(F)cccc3F)cc(Cl)cn2c1C(=O)NCCN [Example 36, N-(2-aminoethyl)-6-chloro-8-[(2,6-difluorobenzyl)oxy]-2-methylimidazo[1,2-a]-pyridine-3-carboxamide] | 1.00
18 | Cc1nc2c(OCc3c(F)cccc3F)cc(Cl)cn2c1C(=O)NCCCN [Example 37, N-(3-aminopropyl)-6-chloro-8-[(2,6-difluorobenzyl)oxy]-2-methylimidazo[1,2-a]pyridine-3-carboxamide] | 1.00
19 | Cc1nc2c(OCc3c(F)cccc3F)cccn2c1C(=O)NCC1(N)CC1 [Example 38, N-[(1-aminocyclopropyl)methyl]-8-[(2,6-difluorobenzyl)oxy]-2-methylimidazo[1,2-a]-pyridine-3-carboxamide] | 0.40
20 | Cc1nc2c(OCc3c(F)cccc3F)cc(Cl)cn2c1C(=O)NCC1(N)CC1 [Example 39, N-[(1-aminocyclopropyl)methyl]-6-chloro-8-[(2,6-difluorobenzyl)oxy]-2-methylimidazo[1,2-a]pyridine-3-carboxamide] | 0.10
21 | Cc1nc2c(OCc3c(F)cccc3F)cccn2c1C(=O)NCC1(N)CCCC1 [Example 41, N-[(1-aminocyclopentyl)methyl]-8-[(2,6-difluorobenzyl)oxy]-2-methylimidazo[1,2-a]-pyridine-3-carboxamide] | 0.30
22 | Cc1nc2c(OCc3c(F)cccc3F)cc(Cl)cn2c1C(=O)NCC1(N)CCCC1 [Example 42, N-[(1-aminocyclopentyl)methyl]-6-chloro-8-[(2,6-difluorobenzyl)oxy]-2-methylimidazo[1,2-a]pyridine-3-carboxamide] | 1.00
23 | Cc1nc2c(OCC3CCCCC3)cccn2c1C(=O)NC(CN)c1ccc(F)cc1F (stereo not drawn) [Example 45, ent-N-[2-Amino-1-(2,4-difluorophenyl)ethyl]-8-(cyclohexylmethoxy)-2-methylimidazo[1,2-a]-pyridine-3-carboxamide] | 1.00
24 | NCC(NC(=O)c1c(C2CC2)nc2c(OCc3c(F)cccc3F)cccn12)c1ccc(F)c(F)c1 (stereo not drawn) [Example 54, ent-N-[2-amino-1-(3,4-difluorophenyl)ethyl]-2-cyclopropyl-8-[(2,6-difluorobenzyl)oxy]-imidazo[1,2-a]pyridine-3-carboxamide] | 1.00
